Results published in patent US7456171B2, “1,4-Diazabicyclo[3.2.2]nonanecarboxamide derivatives, preparation and therapeutic use thereof” (Sanofi-Aventis, priority 2002, dated 2008).

melting point: 228 to 229 °C
Compound: O=C(c1c[nH]c2nc(Cl)ccc12)N1CCN2CCC1CC2
